Measured values published in ChEMBL document CHEMBL5113453, “Design, synthesis, and biological evaluation of a new series of pyrazole derivatives: Discovery of potent and selective JNK3 kinase inhibitors” (Bioorg Med Chem, 2022).
pIC50: −log10 of the molar value.

Columns and labels:
HOP-62 = experiment: Antiproliferative activity against human HOP-62 cells measured after 48 hrs by SRB assay; type: functional, cell-based
SNB-75 = experiment: Antiproliferative activity against human SNB-75 cells measured after 48 hrs by SRB assay; type: functional, cell-based
NCI-H322M = experiment: Antiproliferative activity against human NCI-H322M cells measured after 48 hrs by SRB assay; type: functional, cell-based
SF-539 = experiment: Antiproliferative activity against human SF-539 cells measured after 48 hrs by SRB assay; type: functional, cell-based
OVCAR-8 = experiment: Antiproliferative activity against human OVCAR-8 cells measured after 48 hrs by SRB assay; type: functional, cell-based
WI-38 = experiment: Antiproliferative activity against human WI-38 cells measured by MTT assay; type: functional, cell-based
SF-268 = experiment: Antiproliferative activity against human SF-268 cells measured after 48 hrs by SRB assay; type: functional, cell-based
SK-MEL-28 = experiment: Antiproliferative activity against human SK-MEL-28 cells measured after 48 hrs by SRB assay; type: functional, cell-based
HCC 2998 = experiment: Antiproliferative activity against human HCC 2998 cells measured after 48 hrs by SRB assay; type: functional, cell-based
HT-29 = experiment: Antiproliferative activity against human HT-29 cells measured after 48 hrs by SRB assay; type: functional, cell-based
HCT-116 = experiment: Antiproliferative activity against human HCT-116 cells measured after 48 hrs by SRB assay; type: functional, cell-based
A549 = experiment: Antiproliferative activity against human A549 cells measured after 48 hrs by SRB assay; type: functional, cell-based
[1] = molecular target: T1, Mitogen-activated protein kinase 10 (Homo sapiens, UniProt P53779); experiment: Inhibition of JNK3 (unknown origin)
MOLT-4 = experiment: Antiproliferative activity against human MOLT-4 cells measured after 48 hrs by SRB assay; type: functional, cell-based
UACC-257 = experiment: Antiproliferative activity against human UACC-257 cells measured after 48 hrs by SRB assay; type: functional, cell-based
K562 = experiment: Antiproliferative activity against human K562 cells measured after 48 hrs by SRB assay; type: functional, cell-based
RXF 393 = experiment: Antiproliferative activity against human RXF 393 cells measured after 48 hrs by SRB assay; type: functional, cell-based
NCI-H23 = experiment: Antiproliferative activity against human NCI-H23 cells measured after 48 hrs by SRB assay; type: functional, cell-based
TK-10 = experiment: Antiproliferative activity against human TK-10 cells measured after 48 hrs by SRB assay; type: functional, cell-based
OVCAR-5 = experiment: Antiproliferative activity against human OVCAR-5 cells measured after 48 hrs by SRB assay; type: functional, cell-based
Malme-3M = experiment: Antiproliferative activity against human Malme-3M cells measured after 48 hrs by SRB assay; type: functional, cell-based
HCT-15 = experiment: Antiproliferative activity against human HCT-15 cells measured after 48 hrs by SRB assay; type: functional, cell-based
SK-MEL-2 = experiment: Antiproliferative activity against human SK-MEL-2 cells measured after 48 hrs by SRB assay; type: functional, cell-based
HL-60(TB) = experiment: Antiproliferative activity against human HL-60(TB) cells measured after 48 hrs by SRB assay; type: functional, cell-based
MDA-MB-468 = experiment: Antiproliferative activity against human MDA-MB-468 cells measured after 48 hrs by SRB assay; type: functional, cell-based
SR = experiment: Antiproliferative activity against human SR cells measured after 48 hrs by SRB assay; type: functional, cell-based
[2] = molecular target: T1, Mitogen-activated protein kinase 10; experiment: Inhibition of JNK3 (unknown origin) at 1 uM relative to control
SNB-19 = experiment: Antiproliferative activity against human SNB-19 cells measured after 48 hrs by SRB assay; type: functional, cell-based
BT-549 = experiment: Antiproliferative activity against human BT-549 cells measured after 48 hrs by SRB assay; type: functional, cell-based
SW-620 = experiment: Antiproliferative activity against human SW-620 cells measured after 48 hrs by SRB assay; type: functional, cell-based
EKVX = experiment: Antiproliferative activity against human EKVX cells measured after 48 hrs by SRB assay; type: functional, cell-based
SK-MEL-5 = experiment: Antiproliferative activity against human SK-MEL-5 cells measured after 48 hrs by SRB assay; type: functional, cell-based
UO-31 = experiment: Antiproliferative activity against human UO-31 cells measured after 48 hrs by SRB assay; type: functional, cell-based
SN12C = experiment: Antiproliferative activity against human SN12C cells measured after 48 hrs by SRB assay; type: functional, cell-based
SF-295 = experiment: Antiproliferative activity against human SF-295 cells measured after 48 hrs by SRB assay; type: functional, cell-based
SK-OV-3 = experiment: Antiproliferative activity against human SK-OV-3 cells measured after 48 hrs by SRB assay; type: functional, cell-based
DU-145 = experiment: Antiproliferative activity against human DU-145 cells measured after 48 hrs by SRB assay; type: functional, cell-based
ACHN = experiment: Antiproliferative activity against human ACHN cells measured after 48 hrs by SRB assay; type: functional, cell-based
UACC-62 = experiment: Antiproliferative activity against human UACC-62 cells measured after 48 hrs by SRB assay; type: functional, cell-based

T1 sequence (P53779 whole entry): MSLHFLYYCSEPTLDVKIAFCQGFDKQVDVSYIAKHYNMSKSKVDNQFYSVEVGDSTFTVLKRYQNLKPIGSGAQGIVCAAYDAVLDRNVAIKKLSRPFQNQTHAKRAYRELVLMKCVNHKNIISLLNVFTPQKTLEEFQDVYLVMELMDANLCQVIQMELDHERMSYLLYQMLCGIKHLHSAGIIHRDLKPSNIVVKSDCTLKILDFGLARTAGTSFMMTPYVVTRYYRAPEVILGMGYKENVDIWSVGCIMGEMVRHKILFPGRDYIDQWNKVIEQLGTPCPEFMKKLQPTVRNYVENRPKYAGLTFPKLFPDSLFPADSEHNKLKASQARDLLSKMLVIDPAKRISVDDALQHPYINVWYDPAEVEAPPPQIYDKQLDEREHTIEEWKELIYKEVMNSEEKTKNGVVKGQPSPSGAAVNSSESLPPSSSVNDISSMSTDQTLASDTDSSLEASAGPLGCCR

O=C(NCCCNc1cc(-c2cn(-c3ccccc3)nc2-c2cccc(O)c2)ccn1)Nc1cccc(C(F)(F)F)c1
pIC50 (HOP-62; HOP-62, 48 h): 5.39 | TGI (HOP-62; HOP-62, time 48 hrs): 9.59 µM | pIC50 (SNB-75; SNB-75, 48 h): 6.13 | TGI (SNB-75; SNB-75, time 48 hrs): 4.1 µM | pIC50 (NCI-H322M; 48 h): 5.37 | TGI (NCI-H322M; time 48 hrs): 9.32 µM | pIC50 (SF-539; SF-539, 48 h): 5.56 | TGI (SF-539; SF-539, time 48 hrs): 7.18 µM | pIC50 (OVCAR-8; OVCAR-8, 48 h): 5.41 | TGI (OVCAR-8; OVCAR-8, time 48 hrs): 10 µM | pIC50 (WI-38): 4.87 | pIC50 (SF-268; SF-268, 48 h): 5.49 | TGI (SF-268; SF-268, time 48 hrs): 9.69 µM | pIC50 (SK-MEL-28; SK-MEL-28, 48 h): 5.46 | TGI (SK-MEL-28; SK-MEL-28, time 48 hrs): 7.51 µM | pIC50 (HCC 2998; HCC 2998, 48 h): 5.90 | TGI (HCC 2998; HCC 2998, time 48 hrs): 4.34 µM | pIC50 (HT-29; HT-29, 48 h): 5.82 | TGI (HT-29; HT-29, time 48 hrs): 6.19 µM | pIC50 (HCT-116; HCT-116, 48 h): 5.71 | TGI (HCT-116; HCT-116, time 48 hrs): 6.33 µM | pIC50 (A549; A549, 48 h): 5.47 | TGI (A549; A549, time 48 hrs): 11.2 µM | pIC50 [1]: 6.32 | pIC50 (MOLT-4; MOLT-4, 48 h): 5.78 | TGI (MOLT-4; MOLT-4, time 48 hrs): 15 µM | pIC50 (UACC-257; UACC-257, 48 h): 5.32 | TGI (UACC-257; UACC-257, time 48 hrs): 10.1 µM | pIC50 (K562; K562, 48 h): 5.90 | TGI (K562; K562, time 48 hrs): > 14.5 µM | pIC50 (RXF 393; RXF 393, 48 h): 5.97 | TGI (RXF 393; RXF 393, time 48 hrs): 4.96 µM | pIC50 (NCI-H23; NCI-H23, 48 h): 5.36 | TGI (NCI-H23; NCI-H23, time 48 hrs): 9.34 µM | pIC50 (TK-10; TK-10, 48 h): 5.24 | TGI (TK-10; TK-10, time 48 hrs): 13.2 µM | pIC50 (OVCAR-5; OVCAR-5, 48 h): 5.40 | TGI (OVCAR-5; OVCAR-5, time 48 hrs): 9.71 µM | pIC50 (Malme-3M; 48 h): 5.81 | TGI (Malme-3M; time 48 hrs): 6.08 µM | pIC50 (HCT-15; HCT-15, 48 h): 5.97 | TGI (HCT-15; HCT-15, time 48 hrs): 4.32 µM | pIC50 (SK-MEL-2; SK-MEL-2, 48 h): 5.28 | TGI (SK-MEL-2; SK-MEL-2, time 48 hrs): 11.7 µM | pIC50 (HL-60(TB); HL-60, 48 h): 5.47 | TGI (HL-60(TB); HL-60, time 48 hrs): 14.5 µM | pIC50 (MDA-MB-468; MDA-MB-468, 48 h): 5.79 | TGI (MDA-MB-468; MDA-MB-468, time 48 hrs): 6.16 µM | pIC50 (SR; 48 h): 5.78 | TGI (SR; time 48 hrs): 12.8 µM | inhibition [2]: 73% | pIC50 (SNB-19; SNB-19, 48 h): 5.40 | TGI (SNB-19; SNB-19, time 48 hrs): 8.97 µM | pIC50 (BT-549; BT-549, 48 h): 5.49 | TGI (BT-549; BT-549, time 48 hrs): 7.63 µM | pIC50 (SW-620; SW-620, 48 h): 5.41 | TGI (SW-620; SW-620, time 48 hrs): 8.31 µM | pIC50 (EKVX; 48 h): 5.46 | TGI (EKVX; time 48 hrs): 8.45 µM | pIC50 (SK-MEL-5; SK-MEL-5, 48 h): 5.49 | TGI (SK-MEL-5; SK-MEL-5, time 48 hrs): 7.17 µM | pIC50 (UO-31; UO-31, 48 h): 5.68 | TGI (UO-31; UO-31, time 48 hrs): 10.8 µM | pIC50 (SN12C; 48 h): 5.44 | TGI (SN12C; time 48 hrs): 7.91 µM | pIC50 (SF-295; SF-295, 48 h): 5.75 | TGI (SF-295; SF-295, time 48 hrs): 6.42 µM | pIC50 (SK-OV-3; SK-OV-3, 48 h): 5.35 | TGI (SK-OV-3; SK-OV-3, time 48 hrs): 10.1 µM | pIC50 (DU-145; DU-145, 48 h): 5.32 | TGI (DU-145; DU-145, time 48 hrs): 11.9 µM | pIC50 (ACHN; 48 h): 5.28 | TGI (ACHN; time 48 hrs): 15.5 µM | pIC50 (UACC-62; UACC-62, 48 h): 5.36 | TGI (UACC-62; UACC-62, time 48 hrs): 8.84 µM
